Reference: the NIST ThermoML archive (doi:10.1021/je7005133)
Numbers after ± are expanded uncertainties.

c1cc2c3c(cccc3c1)CC2 [acenaphthene]
Crystal
Conditions | vapor or sublimation pressure [kPa]
297.6 K | 0.00029 ± 3e-05
299.7 K | 0.000362 ± 3.7e-05
300.5 K | 0.000413 ± 4.2e-05
301.6 K | 0.00044 ± 4.5e-05
302.8 K | 0.000508 ± 5.2e-05
306.1 K | 0.000693 ± 7.1e-05
310.7 K | 0.00112 ± 0.00023
315.6 K | 0.0018 ± 0.00041

c1ccc2c(c1)Cc1ccccc1-2 [fluorene]
Crystal
Conditions | vapor or sublimation pressure [kPa]
298 K | 6.61e-05 ± 6.9e-06
298.1 K | 6.52e-05 ± 6.9e-06
299.8 K | 8.4e-05 ± 8.7e-06
301.4 K | 9.88e-05 ± 1e-05
304.3 K | 0.000141 ± 1.4e-05
306.6 K | 0.000178 ± 2.1e-05
306.9 K | 0.000195 ± 2.3e-05
308.1 K | 0.000218 ± 2.2e-05
309.8 K | 0.000261 ± 2.7e-05
311.2 K | 0.000301 ± 3.1e-05
314.3 K | 0.000414 ± 4.2e-05
316 K | 0.00046 ± 4.7e-05
316.5 K | 0.000531 ± 5.6e-05
317.3 K | 0.000581 ± 6e-05
317.6 K | 0.000613 ± 6.5e-05
320.3 K | 0.00076 ± 7.9e-05
324.4 K | 0.00127 ± 0.00027

c1ccc2c(c1)c1ccccc1c1ccccc21 [triphenylene]
Crystal
Conditions | vapor or sublimation pressure [kPa]
368.4 K | 1.7e-05 ± 1.8e-06
377.4 K | 4.48e-05 ± 4.5e-06
377.7 K | 4.51e-05 ± 4.6e-06
378 K | 4.64e-05 ± 4.7e-06
386.7 K | 0.000116 ± 1.2e-05
390.7 K | 0.000178 ± 1.8e-05
394.9 K | 0.000264 ± 2.7e-05
395 K | 0.000258 ± 2.6e-05
399.1 K | 0.000375 ± 3.8e-05

C1=Cc2cccc3cccc1c23 [acenaphthylene]
Crystal
Conditions | vapor or sublimation pressure [kPa]
297.4 K | 0.000488 ± 5.1e-05
297.6 K | 0.000531 ± 5.5e-05
304.6 K | 0.00105 ± 0.00021
304.7 K | 0.00108 ± 0.00022
306.7 K | 0.00114 ± 0.00024
311.9 K | 0.00182 ± 0.00041
314.8 K | 0.00345 ± 0.00088
318.5 K | 0.00345 ± 0.00088
318.6 K | 0.00347 ± 0.00088
319.7 K | 0.00414 ± 0.0011

c1cc2cccc3c4cccc5cccc(c(c1)c23)c54 [perylene]
Crystal
Conditions | vapor or sublimation pressure [kPa]
390 K | 1.37e-05 ± 1.4e-06
390.5 K | 1.47e-05 ± 1.5e-06
391.2 K | 1.49e-05 ± 1.6e-06
393.7 K | 2.15e-05 ± 2.2e-06
397.7 K | 3.15e-05 ± 3.2e-06
398.3 K | 3.03e-05 ± 3.1e-06
402.2 K | 4.58e-05 ± 4.6e-06
402.8 K | 4.76e-05 ± 4.9e-06
403.7 K | 5.19e-05 ± 5.4e-06
405.7 K | 6.67e-05 ± 6.8e-06
406.6 K | 7.2e-05 ± 7.3e-06
406.8 K | 7.03e-05 ± 7.2e-06
410.5 K | 0.0001 ± 1e-05
411.3 K | 0.000102 ± 1.1e-05
412.7 K | 0.000132 ± 1.4e-05
413.4 K | 0.000142 ± 1.4e-05
414.4 K | 0.000148 ± 1.5e-05
418.4 K | 0.000196 ± 2e-05
428.6 K | 0.000443 ± 4.5e-05
432.4 K | 0.000606 ± 6.1e-05

c1ccc2cc3ccccc3cc2c1 [anthracene]
Crystal
Conditions | vapor or sublimation pressure [kPa]
322.2 K | 1.6e-05 ± 1.7e-06
327 K | 2.6e-05 ± 2.7e-06
329.1 K | 3.33e-05 ± 3.4e-06
333.4 K | 4.91e-05 ± 5e-06
336.3 K | 7.2e-05 ± 7.4e-06
338.7 K | 9.43e-05 ± 9.6e-06
340.4 K | 0.00011 ± 1.1e-05
341.2 K | 0.000119 ± 1.2e-05
342.3 K | 0.000131 ± 1.3e-05
343.6 K | 0.000141 ± 1.4e-05
344.2 K | 0.000164 ± 1.7e-05
346.4 K | 0.000192 ± 2e-05
348.2 K | 0.00026 ± 2.7e-05

c1cc2ccc3cccc4ccc(c1)c2c34 [pyrene]
Crystal
Conditions | vapor or sublimation pressure [kPa]
322 K | 8.95e-06 ± 1.1e-06
337.1 K | 5.31e-05 ± 5.4e-06
342.1 K | 9.43e-05 ± 9.6e-06
347.1 K | 0.000147 ± 1.5e-05
352.3 K | 0.000227 ± 2.3e-05
356.8 K | 0.000339 ± 3.5e-05
362.1 K | 0.000599 ± 6.1e-05
372 K | 0.0013 ± 0.00028
381.4 K | 0.00281 ± 0.00069

c1ccc2c(c1)-c1cccc3cccc-2c13 [fluoranthene]
Crystal
Conditions | vapor or sublimation pressure [kPa]
326.8 K | 3.96e-05 ± 4.1e-06
326.9 K | 4.11e-05 ± 4.3e-06
331 K | 6.16e-05 ± 6.2e-06
331.8 K | 6.32e-05 ± 6.4e-06
336.7 K | 0.000117 ± 1.2e-05
338.7 K | 0.000129 ± 1.3e-05
338.8 K | 0.000131 ± 1.3e-05
338.9 K | 0.000144 ± 1.5e-05
340.2 K | 0.000154 ± 1.6e-05
342.5 K | 0.000206 ± 2.1e-05
343.9 K | 0.000248 ± 2.5e-05
345.3 K | 0.000258 ± 2.6e-05
348 K | 0.00033 ± 3.3e-05
348.5 K | 0.000341 ± 3.4e-05
350.9 K | 0.000463 ± 4.7e-05
354.1 K | 0.00058 ± 6e-05
359.2 K | 0.00105 ± 0.00021

c1ccc2c(c1)ccc1c3ccccc3ccc21 [chrysene]
Crystal 2
Conditions | vapor or sublimation pressure [kPa]
372.4 K | 1.74e-05 ± 1.8e-06
380.7 K | 3.72e-05 ± 3.8e-06
385.2 K | 5.37e-05 ± 5.5e-06
389.2 K | 7.61e-05 ± 7.7e-06
389.4 K | 7.5e-05 ± 7.6e-06
393.6 K | 0.000103 ± 1.5e-05
394.2 K | 0.000136 ± 1.4e-05
396.1 K | 0.000148 ± 1.5e-05
398.1 K | 0.000168 ± 1.7e-05
398.2 K | 0.000158 ± 1.6e-05
400 K | 0.000202 ± 2.1e-05
400.4 K | 0.000212 ± 2.2e-05
402.8 K | 0.000263 ± 2.7e-05
403 K | 0.000254 ± 2.6e-05
404.8 K | 0.000277 ± 3.4e-05
404.9 K | 0.000292 ± 3e-05
405.1 K | 0.000306 ± 3.6e-05
406.8 K | 0.000336 ± 3.4e-05
408.6 K | 0.000379 ± 3.8e-05

c1ccc2c(c1)cc1ccc3cccc4ccc2c1c34 [benzo[a]pyrene]
Crystal
Conditions | vapor or sublimation pressure [kPa]
392.3 K | 7.31e-05 ± 7.4e-06
393.5 K | 7.96e-05 ± 8.3e-06
397.8 K | 0.000129 ± 1.3e-05
400.8 K | 0.000167 ± 1.7e-05
402.3 K | 0.00018 ± 1.8e-05
405.2 K | 0.000217 ± 2.2e-05
406.6 K | 0.000273 ± 2.8e-05
411.5 K | 0.000394 ± 4.3e-05
411.8 K | 0.000418 ± 4.5e-05
415.1 K | 0.000494 ± 5.4e-05
415.5 K | 0.000537 ± 5.8e-05
419 K | 0.000697 ± 7e-05
419.7 K | 0.000733 ± 7.4e-05
421.2 K | 0.000785 ± 7.9e-05
423.8 K | 0.00098 ± 9.9e-05
423.9 K | 0.00102 ± 0.00021
